Experimental findings from US20210139610A1, “COMPOSITIONS AND METHODS FOR MEDIATING EPS” (priority 2018, published 2021) are described below.

The subject of test [1] is preformed NTHI biofilms. The experiment in a line: Disruption of pre-formed NTHI biofilms (treatment after initial growth; LIVE/DEAD, CLSM, COMSTAT). The class given is cell-based, Non-typeable Haemophilus influenzae. The note with it: 1% P11. The protocol:
(FIG. 18A) Biofilm growth was initiated then maintained for 24 hrs then treated for 16 hrs with 0 (SBHI Control), 0.1%, 1%, and 5% (w/v) of Phoshocellulose (P11). (FIG. 18B) Biofilm growth was initiated then maintained for 40 hrs in the presence of 0 (sBHI Control), 0.1%, 1%, and 5% (w/v) of (P11). Biofilms were washed with saline and stained with LIVE/DEAD® stain. Images were analyzed by COMSTAT to calculate average thickness and biomass. All images were captured with a 63× objective.
21:65-7. Pulmozyme® was added either at seeding (biofilm prevention) or to pre-formed biofilms (biofilm disruption) (FIG. 6). The resultant biofilms were stained with LIVE/DEAD® and evaluated using CLSM and COMSTAT analysis.
To determine anti-biofilm activity of cation exchange resins on preformed biofilms (i.e. ability to disrupt an extant biofilm), NTHI growth was initiated and maintained for 24 hrs, then treated for 16 hrs with 0 (sBHI Control), 0.1, 1, or 5% (w/v) of P11 phosphocellulose (FIG. 18A). To determine the anti-biofilm activity of cation exchange resins to prevent biofilm formation, NTHI growth was initiated and maintained in the presence of 0 (sBHI Control), 0.1, 1, and 5% w/v of P11 phosphocellulose (FIG. 18B) or 5% (w/v) heparin sepharose (FIG. 19). Biofilms were washed with saline and stained with LIVE/DEAD®, visualized with confocal scanning microscopy (CSLM) and analyzed by COMSTAT to determine average thickness and biomass.

The test system of the next test is genomic DNA / poly(dGdC). The experiment in a line: A260/295 absorbance ratio assay of B-DNA to Z-DNA conversion. The class given is biochemical. The method, then:
In one aspect, the agents are administered in the absence of a DNAse. Left: Genomic DNA (2 μg/mL) was incubated with spermidine (spd:300 μM), HU (500 nM), a combination of both spd and HU for 2 h at 37° C. Incubation of gDNA with 3.6M NaCl was used as a positive Z-DNA control. Middle: gDNA (2 μg/mL) was incubated with increased concentrations of Cerium chloride (CeCl3) which is known to induce Z-DNA. Right: poly(dGdC) (1 μg) was incubated with either NaCl (3.6 M), chloroquine (100 μM), or a combination of both NaCl and chloroquine. […] The absorbance values at 260 nm and 295 nm were measured and the A260/295 ratio was calculated. A ratio >8.6 is indicative of B-DNA, while a value near 3.2 is indicative of Z-DNA.

For test [2], the system named is Z-DNA and B-DNA in the NTHI biofilm extracellular matrix. The experiment in a line: Immunofluorescence CLSM for Z-DNA / B-DNA in NTHI biofilms. It is filed as cell-based, Non-typeable Haemophilus influenzae. The note with it: 24 h biofilm + 16 h with agent (1 mM CeCl3; 1 μM chloroquine). The method, then:
FIG. 31: DNase degrades B-DNA, but not Z-DNA, within the biofilm extracellular matrix. DNase (Pulmozyme; 5 units) was added at 24 h after biofilm seeding to in vitro pre-formed NTHI biofilms.
FIG. 37: HMGB1 destabilizes Z-DNA structures in the biofilm extracellular matrix. Non-typeable Haemophilus influenzae biofilms were grown in supplemented BHI media in 8 well chambered coverglass slides at 37° C. and 5% CO2. After 24 h, biofilms were treated as indicated above. After 40 h, biofilms were washed, probed with primary antibodies directed against Z-DNA (light gray dots), a fluorescent secondary antibody, stained with DAPI (gray regions), and visualized via fluorescence microscopy.
FIGS. 50A-50B: Equilibrium shift of B-DNA to Z-DNA conversion alters biofilm formation. NTHI biofilms formed for 24 h were incubated with cerium chloride (CeCl3) or chloroquine for an additional 16 h and were probed with naive or anti-Z-DNA (white) by immunofluorescence CLSM.
FIGS. 51A-51B: Equilibrium shift of B-DNA to Z-DNA conversion alters biofilm formation. NTHI biofilms formed for 24 h were incubated with cerium chloride (CeCl3) (FIG. 51A) or chloroquine (FIG. 51B) for an additional 16 h. Z-DNA was measured by IF and CLSM using anti-Z-DNA and cells were stained with the membrane stain FM4-64. Bars represent the SEM. Statistical significance compared to control was assessed by paired t-tests, *P<0.05, **P<0.01.

Test [3] has as its system preformed NTHI biofilms. The experiment in a line: Disruption of pre-formed NTHI biofilms (treatment after initial growth; LIVE/DEAD, CLSM, COMSTAT). The class given is cell-based, Non-typeable Haemophilus influenzae. The note with it: 24 h biofilm + 16 h with CeCl3 or chloroquine.
Another test deals with NTHI biofilms. The experiment in a line: Transwell assay: NTHI biofilm in basolateral chamber, P11 resin in apical chamber. It is filed as cell-based, Non-typeable Haemophilus influenzae.
A further test concerns NTHI genomic DNA (gDNA). The test is described as follows: Protection of genomic DNA from DNase digestion (agarose gel). It is filed as biochemical, Non-typeable Haemophilus influenzae. The note with it: DNase 0.5 units.
Test [4] has as its system Non-typeable Haemophilus influenzae biofilms. The experiment in a line: NTHI in vitro biofilm formation, additive present from seeding (LIVE/DEAD, CLSM, COMSTAT). It is filed as cell-based. The note with it: 1 mM exogenous spermidine plus DCHA 50 μM. The method, then:
FIG. 14: Non-typeable Haemophilus influenzae biofilms were grown for 40 h in supplemented BHI medium containing additives as indicated below each bar in 8 well chambered coverglass slides at 37° C. and 5% CO2. Biofilms were washed, stained with LIVE/DEAD®, fixed, and imaged by CLSM. Biofilm parameters were quantified using COMSTAT software.
Dicyclohexylamine inhibits spermidine synthase via a competitive inhibition mechanism, i.e. through binding to the same site on the protein as the putrescine substrate. Applicants therefore hypothesized that dicyclohexylamine would inhibit NTHi biofilm development. […]

A further test concerns genomic DNA. The experiment in a line: Spermidine sensitivity of nucleases on genomic DNA. The class given is biochemical. The note with it: Spermidine titrated from 10 μM-10 mM.
Test [5] deals with NTHI biofilms in the middle ear. The test is described as follows: Chinchilla model of otitis media due to NTHI, middle ear biofilm scoring. The class given is in vivo. The note with it: 5 μg to middle ears at 4 and 5 days post infection, scored 24 h later. The protocol: FIGS. 39A-39B: HMGB1 promotes biofilm resolution in an experimental model (chinchilla host) of OM. Diluent or 5 μg rHMGB1 or mHMGB1 were delivered directly to middle ears of chinchillas at 4 and 5 days post infection with NTHI. Animals were sacrificed 24 h later, and their middle ears were imaged (FIG. 39A) and blindly scored (FIG. 39B) based on the criteria described in the bottom of (FIG. 39A). Bars represent SEM. ***P<0.001.

“Also recorded” adds a separate entry of the source. Where only a bound is given, the exact number is not on record here.

Protocol for NTHI genomic DNA (gDNA): (FIG. 7C) Increasing levels of spermidine (Spd) and HU, separately or together, were incubated with genomic DNA (2 μg/ml) for 1.5 h at 37° C., followed by treatment with Pulmozyme® for 20 min. DNA degradation was assayed using agarose gel electrophoresis. […] (FIG. 7D) Spd (300 μM) and HU (1 μM) were incubated with genomic DNA (2 μg/ml) for 40 h, followed by Pulmozyme® treatment for 20 min.
To test synergism in vitro, Applicants incubated NTHI genomic DNA (gDNA) with spermidine (10, 20, 50, or 100 μM) in the presence or absence of HU (50 or 100 nM) and DNase (0.5 units). Degradation was assessed by agarose gel electrophoresis and UV illumination.

Turning to `[Cl-].[Cl-].[Mg+2]` [MgCl2], the “compensation of phosphocellulose effect on NTHI biofilm” value with preformed NTHI biofilms [1] (MgCl2 0-10 mM for 16 hrs) is on record as “can partially compensate for the disruptive effect of phosphocellulose; also recorded: rescues the negative effect of phosphocellulose on NTHI biofilm stability”.

As to `CCN(CC)CCCC(C)Nc1ccnc2cc(Cl)ccc12` (centres unmarked) [chloroquine], the “B-DNA to Z-DNA transition of poly(dGdC)” value in the test with genomic DNA / poly(dGdC) (chloroquine 100 μM with NaCl 3.6 M) is given as “prevents the transition of B-DNA to Z-DNA”. For the same molecule, the “Z-DNA abundance in NTHI biofilm” value in [2] was “decreased Z-DNA abundance; also recorded: reduced Z-DNA”. Also, in the test with preformed NTHI biofilms [3], the “NTHI biofilm formation / development” value was “reduced Z-DNA and biofilm development”.

For the molecule `NCCCCNCCCN` [spermidine], in the test on NTHI biofilms (1% P11, 1 mM spermidine or 1 μM HU, data not shown), the “restoration of P11-depleted biofilm by HU or spermidine individually” value is recorded as “insufficient”. For the same molecule, in the test on NTHI biofilms (1.5% P11, 100, 500 or 1000 μM spermidine, 16 hrs), the “restoration of cation-depleted biofilms by spermidine alone” value is on record as “alone can restore cation-depleted biofilms in a dose-dependent manner; also recorded: reduces the cation depletion effects of P11 phosphocellulose”. For the same molecule, the “concentration protecting gDNA from DNase individually” value in the test on NTHI genomic DNA (gDNA) is over 100 µM. Besides, the “concentration inhibiting gDNA digestion synergistically when admixed” value in the test on NTHI genomic DNA (gDNA) (admixed with HU) is under 50 µM. Also, the “rescue of biofilm formation in dicyclohexylamine-treated NTHI biofilms” value in test [4] was “defects in biofilm biogenesis could be compensated for; also recorded: restored normal biofilm thickness, biomass, and roughness; also recorded: able to rescue biofilm growth”; in test [4] (listed as Spd) it was “restored biofilm formation”. Moreover, the “compensation of phosphocellulose effect on NTHI biofilm” value in the test with preformed NTHI biofilms [1] (spermidine 0-5 mM for 16 hrs) is given as “can partially compensate for the negative effect of phosphocellulose”; in the test with preformed NTHI biofilms [1] (spermidine 0-5 mM for 16 hrs, listed as Spermidine), “rescues the negative effect of phosphocellulose on NTHI biofilm stability”.

In the case of `[Cl][Ce]([Cl])[Cl]` [CeCl3, cerium chloride], in the test on genomic DNA / poly(dGdC) (gDNA 2 μg/mL, spd 300 μM + HU 500 nM, 2 h at 37° C., or increased concentrations of CeCl3), the “induction of Z-DNA in genomic DNA” value is given as “synergized to induce Z-DNA”. The “Z-DNA abundance in NTHI biofilm” value in [2] was “increased Z-DNA abundance”. The “NTHI biofilm formation / development” value in the test with preformed NTHI biofilms [3] was “increased Z-DNA and biofilm formation”.

B1: NucB: nuclease that prevents biofilm formation (Table 1) (protein, UniProt P42983 29-136, looked up)
Sporulation-specific …: SYDKVLYFPLSRYPETGSHIRDAIAEGHPDICTIDRDGADKRREESLKGIPTKPGYDRDEWPMAVCEEGGAGADVRYVTPSDNRGAGSWVGNQMSSYPDGTRVLFIVQ
For B1, in the test on genomic DNA, the “Spd inhibition: spermidine concentration where nuclease was reduced to <10% activity on genomic DNA” value was over 10 mM.

B2: non-inflammatory HMGB1 variant: mHMGB1, a C45 S non-inflammatory variant (protein, UniProt P09429 1-215, looked up, variant C45S)
High mobility group protein B1: MGKGDPKKPRGKMSSYAFFVQTCREEHKKKHPDASVNFSEFSKKSSERWKTMSAKEKGKFEDMAKADKARYEREMKTYIPPKGETKKKFKDPNAPKRPPSAFFLFCSEYRPKIKGEHPGLSIGDVAKKLGEMWNNTAADDKQPYEKKAAKLKEKYEKDIAAYRAKGKPDAAKKGVVKAEKSKKKKEEEEDEEDEEDEEEEEDEEDEDEEEDDDDE
In the case of B2, the “resolution of middle ear NTHI biofilms” value in test [5] is “efficient resolution of adherent biofilms”.
